The text below walks through data of US11649242B2, “Pyrrolopyrrole compositions as pyruvate kinase (PKR) activators” (FORMA Therapeutics, Inc., priority 2017, dated 2023).

Broadly, the AC50 is the concentration giving half of the maximal activity seen.

Format in all cases: biochemical
One test concerns the target PKR(G332S) (Homo sapiens, UniProt P30613, G332S). The experiment in a line: Luminescence Assay Protocol (Kinase Glo Plus), PKR(G332S/with FBP). Particulars: PKRG332S, with FBP; for activation at 1.54 µM: read-out: C - AC50 LUM KGP FBP % Fold @ 1.54 μM mean; for AC50: gmean, read-out: A - AC50 LUM KGP FBP AC50 μM gmean; for Emax: read-out: B - AC50 LUM KGP FBP MAX % FOLD mean. The method, then: (§1) Example 47: PKR(Wt/without FBP), PKR(G332S/with FBP), PKR(R510Q/without FBP)
(§2) The phosphorylation of Adenosine-5′-diphosphate (ADP) by various mutants of PKR was determined by the Kinase Glo Plus Assay (Promega) in the presence or absence of FBP [D-Fructose-1,6-diphosphate; BOC Sciences, CAS: 81028-91-3] as follows. Unless otherwise indicated, all reagents were purchased from Sigma-Aldrich. All reagents were prepared in buffer containing 50 mM Tris-HCl, 100 mM KCl, 5 mM MgCl2, and 0.01% Triton X100, 0.03% BSA, and 1 mM DTT. Enzyme and PEP [Phospho(enol) pyruvic acid] were added at 2× to all wells of an assay-ready plate containing serial dilutions of test compounds or DMSO vehicle. Final enzyme concentrations for PKR(wt), PKR(R510Q), and PKR(G332S) were 0.8 nM, 0.8 nM, and 10 nM respectively. Final PEP concentration was 100 μM. The Enzyme/PEP mixture was incubated with compounds for 30 minutes at RT before the assay was initiated with the addition of 2×ADP [Adenosine-5′-diphosphate] and KinaseGloPlus. Final concentration of ADP was 100 μM. […] For assays containing FBP, that reagent is added at 30 μM upon reaction initiation. Reactions were allowed to progress for 45 minutes at RT until luminescence was recorded by the BMG PHERAstar FS Multilabel Reader. All compounds were tested in triplicate at concentrations ranging from 42.5 μM to 2.2 nM in 0.83% DMSO.
(§3) Luminescence values were converted to % Fold increase by normalizing to the average of the DMSO control and multiplying by 100. Max, min, slope and AC50 were determined by the standard four parameter fit algorithm of ActivityBase XE Runner. Compounds were evaluated with three parameters—AC50, MAX % Fold, and % Fold@1.54 μM (FIG. 1). The AC50 value for a compound is the concentration […] corresponding to the midway between the maximum and minimum values of the four parameter logistic curve fit (i.e., at which the % fold increase along the four parameter logistic curve fit is halfway between MAX % Fold and MIN % Fold (% Fold Midpoint)), MAX % Fold is the highest fold increase observed at any concentration of compound, and % Fold@1.54 μM is the fold increase at a compound concentration of 1.54 μM. The parameter % Fold@1.54 μM was selected to capture elements of both the AC50 and MAX % Fold and to provide a ranking based on both potency and effect. The compound concentration of 1.54 μM was chosen as one that can optimally differentiate the set of compounds based on the range of activities observed.
(§4) As set forth in Tables 6 and 7 below, AC50 values (columns A, D, G) are defined as follows: ≤0.1 μM (+++); >0.1 μM and ≤1.0 μM (++); >1.0 μM and ≤40 μM (+); >40 μM (0). Max % FOLD values (columns B, E, H) are defined as follows: ≤75% (+); >75% and ≤250% (++); >250% and ≤500% (+++). % Fold@1.54 μM values (columns C, F, I) are defined as follows: ≤75% (+); >75% and ≤250% (++); >250% and ≤500% (+++).

The target of a further test is PKR(R510Q) (Homo sapiens, UniProt P30613, R510Q). Briefly: Luminescence Assay Protocol (Kinase Glo Plus), PKR(R510Q/without FBP). Particulars: PKRR510Q, without FBP; for activation at 1.54 µM / F - AC50 LUM KGP woFBP % Fold @ 1.54 μM mean: compound 1.54 μM; for activation at 1.54 µM: read-out: F - AC50 LUM KGP woFBP % Fold @ 1.54 μM mean; for AC50: gmean, read-out: D - AC50 LUM KGP woFBP AC50 μM gmean; for Emax: read-out: E - AC50 LUM KGP woFBP MAX % FOLD mean. The method, then:
as §1, §2, §3, §4

For another test, the target named is PKR(wt) (Homo sapiens, UniProt P30613). The experiment in a line: Luminescence Assay Protocol (Kinase Glo Plus), PKR(Wt/without FBP). Particulars: without FBP; for activation at 1.54 µM / I - AC50 LUM KGP woFBP % Fold @ 1.54 μM mean: compound 1.54 μM; for activation at 1.54 µM: read-out: I - AC50 LUM KGP woFBP % Fold @ 1.54 μM mean; for AC50: gmean, read-out: G - AC50 LUM KGP woFBP AC50 μM gmean; for Emax / H - AC50 LUM KGP woFBP MAX % FOLD mean: highest % fold increase at any concentration; for Emax: read-out: H - AC50 LUM KGP woFBP MAX % FOLD mean. The method, then:
as §1, §2, §3, §4

Setting [1] is: highest % fold increase at any concentration.

Molecules are shown by their SMILES.

Sequence of PKR(G332S) (P30613 whole entry G332S): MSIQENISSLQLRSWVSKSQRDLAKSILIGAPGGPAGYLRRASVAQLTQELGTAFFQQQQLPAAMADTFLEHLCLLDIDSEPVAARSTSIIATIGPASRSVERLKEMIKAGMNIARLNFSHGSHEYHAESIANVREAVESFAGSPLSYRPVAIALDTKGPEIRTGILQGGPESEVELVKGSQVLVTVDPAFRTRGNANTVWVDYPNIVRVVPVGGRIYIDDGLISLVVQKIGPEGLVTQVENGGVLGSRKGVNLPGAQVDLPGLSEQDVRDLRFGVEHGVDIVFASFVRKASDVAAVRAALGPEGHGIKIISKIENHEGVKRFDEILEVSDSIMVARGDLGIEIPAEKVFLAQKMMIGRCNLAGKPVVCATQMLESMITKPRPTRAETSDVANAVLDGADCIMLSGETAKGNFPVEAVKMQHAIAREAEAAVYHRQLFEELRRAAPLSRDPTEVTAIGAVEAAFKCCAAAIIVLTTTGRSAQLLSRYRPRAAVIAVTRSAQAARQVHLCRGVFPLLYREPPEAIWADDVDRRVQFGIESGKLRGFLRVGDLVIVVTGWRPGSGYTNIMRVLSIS
Sequence of PKR(wt) (P30613 whole entry): as the sequence (P30613 whole entry G332S) above, with S332G counted along it
Sequence of PKR(R510Q) (P30613 whole entry R510Q): as the sequence (P30613 whole entry G332S) above, with S332G, R510Q counted along it

As to `O=C(C1CCOC1)N1CC2=C(C1)CN(S(=O)(=O)c1ccc3c(c1)NCCO3)C2` (stereo not shown) [Example 39, (5-((3,4-dihydro-2H-benzo[b][1,4]oxazin-6-yl)sulfonyl)-3,4,5,6-tetrahydropyrrolo[3,4-c]pyrrol-2(1H)-yl)(tetrahydrofuran-3-yl)methanone], the activation at 1.54 µM is 75 to 250% on PKR(G332S) (compound 1.54 μM), 250 to 500% on PKR(R510Q) and 250 to 500% at PKR(wt). Moreover, the AC50 was at most 0.1 µM on PKR(G332S), 0.1 to 1 µM at PKR(R510Q) and 0.1 to 1 µM on PKR(wt). Further, the Emax at PKR(G332S) (setting [1]) fell in the range of 75 to 250%; at PKR(R510Q) (setting [1]) it was 250 to 500%; at PKR(wt), 250 to 500%.

For `COCC1(C(=O)N2CC3=C(C2)CN(S(=O)(=O)c2ccc4c(c2)NCCO4)C3)CC1` [Example 36, (5-((3,4-dihydro-2H-benzo[b][1,4]oxazin-6-yl)sulfonyl)-3,4,5,6-tetrahydropyrrolo[3,4-c]pyrrol-2(1H)-yl)(1-(methoxymethyl)cyclopropyl)methanone], the activation at 1.54 µM at PKR(G332S) (compound 1.54 μM), on PKR(R510Q) and on PKR(wt) was 75 to 250% throughout. For the same compound, the AC50 at PKR(G332S) was over 40 µM; at PKR(R510Q), 1 to 40 µM; on PKR(wt), 0.1 to 1 µM. Moreover, the Emax at PKR(G332S) (setting [1]), on PKR(R510Q) (setting [1]) and at PKR(wt) was 75 to 250% each time.

Turning to `O=C(C1CCCOC1)N1CC2=C(C1)CN(S(=O)(=O)c1ccc3c(c1)NCCO3)C2` (single isomer, unassigned) [Example 33, (S or R)-(5-((3,4-dihydro-2H-benzo[b][1,4]oxazin-6-yl)sulfonyl)-3,4,5,6-tetrahydropyrrolo[3,4-c]pyrrol-2(1H)-yl)(tetrahydro-2H-pyran-3-yl)methanone], the activation at 1.54 µM on PKR(G332S) (compound 1.54 μM) and on PKR(wt) was 75 to 250% throughout. Also, the results for the AC50 on PKR(G332S), on PKR(R510Q) and on PKR(wt) were over 40 µM, 1 to 40 µM and 1 to 40 µM, respectively. For the same compound, the results for the Emax on PKR(G332S) (setting [1]), on PKR(R510Q) (setting [1]) and at PKR(wt) were 75 to 250%, 250 to 500% and 75 to 250%, respectively. Moreover, the “F - AC50 LUM KGP woFBP % Fold @ 1.54 μM mean” value on PKR(R510Q) was “++ (>75% and ≤250% (++))”.

On to `O=C(C1CCCOC1)N1CC2=C(C1)CN(S(=O)(=O)c1ccc3c(c1)NCCO3)C2` (single isomer, unassigned) [Example 34, (R or S)-(5-((3,4-dihydro-2H-benzo[b][1,4]oxazin-6-yl)sulfonyl)-3,4,5,6-tetrahydropyrrolo[3,4-c]pyrrol-2(1H)-yl)(tetrahydro-2H-pyran-3-yl)methanone], for which the “C - AC50 LUM KGP FBP % Fold @ 1.54 μM mean” value at PKR(G332S) (compound 1.54 μM) was “++ (>75% and ≤250% (++))”. Also, at PKR(G332S), the AC50 lay in the range of 0.1 to 1 µM. Besides, on PKR(G332S) (setting [1]), the “B - AC50 LUM KGP FBP MAX % FOLD mean” value was “++ (>75% and ≤250% (++))”. For the same compound, at PKR(R510Q), the “F - AC50 LUM KGP woFBP % Fold @ 1.54 μM mean” value was “+++ (>250% and ≤500% (+++))”; the AC50 is at most 0.1 µM. Also, the “E - AC50 LUM KGP woFBP MAX % FOLD mean” value at PKR(R510Q) (setting [1]) is “+++ (>250% and ≤500% (+++))”. At PKR(wt), the “I - AC50 LUM KGP woFBP % Fold @ 1.54 μM mean” value was “++ (>75% and ≤250% (++))”; the AC50 was at most 0.1 µM; the “H - AC50 LUM KGP woFBP MAX % FOLD mean” value was “++ (>75% and ≤250% (++))”.

`O=C(C(CO)c1ccccc1)N1CC2=C(C1)CN(S(=O)(=O)c1ccc3ncsc3c1)C2` (stereo not shown) [Example 48, 1-(5-(benzo[d]thiazol-6-ylsulfonyl)-3,4,5,6-tetrahydropyrrolo[3,4-c]pyrrol-2(1H)-yl)-3-hydroxy-2-phenylpropan-1-one]: the activation at 1.54 µM was 75 to 250% at PKR(G332S) (compound 1.54 μM), 250 to 500% at PKR(R510Q) and 250 to 500% on PKR(wt). For the same compound, the AC50 at PKR(G332S), on PKR(R510Q) and on PKR(wt) was at most 0.1 µM each time. Further, the Emax at PKR(G332S) (setting [1]) lay within 75 to 250%; at PKR(R510Q) (setting [1]) it was 250 to 500%; on PKR(wt), 250 to 500%.

For `O=C(C1CCCOC1)N1CC2=C(C1)CN(S(=O)(=O)c1cnc3c(c1)OCCO3)C2` (single isomer, unassigned) [Example 6, (S or R)-(5-((2,3-dihydro-[1,4]dioxino[2,3-b]pyridin-7-yl)sulfonyl)-3,4,5,6-tetrahydropyrrolo[3,4-c]pyrrol-2(1H)-yl)(tetrahydro-2H-pyran-3-yl)methanone], the AC50 on PKR(G332S) is over 40 µM. Moreover, on PKR(R510Q), the AC50 is over 40 µM. Also, on PKR(wt), the “I - AC50 LUM KGP woFBP % Fold @ 1.54 μM mean” value was “++ (>75% and ≤250% (++))”; the half-maximal activity concentration (AC50) lay within 1 to 40 µM; the “H - AC50 LUM KGP woFBP MAX % FOLD mean” value was “++ (>75% and ≤250% (++))”.

Turning to `O=C([C@@H](CO)c1ccccc1)N1CC2=C(C1)CN(S(=O)(=O)c1cnc3c(c1)OCCO3)C2` (single isomer, unassigned) [Example 2], the activation at 1.54 µM on PKR(G332S) (compound 1.54 μM), on PKR(R510Q) and at PKR(wt) was 75 to 250% in each case. The values for the Emax on PKR(G332S) (setting [1]), at PKR(R510Q) (setting [1]) and on PKR(wt) were 75 to 250%, 250 to 500% and 75 to 250%, respectively.

For the compound `CN1CCOc2ccc(S(=O)(=O)N3CC4=C(CN(C(=O)C5CCOC5)C4)C3)cc21` (stereo not shown) [Example 47, (5-((4-methyl-3,4-dihydro-2H-benzo[b][1,4]oxazin-6-yl)sulfonyl)-3,4,5,6-tetrahydropyrrolo[3,4-c]pyrrol-2(1H)-yl)(tetrahydrofuran-3-yl)methanone], the activation at 1.54 µM on PKR(G332S) (compound 1.54 μM), on PKR(R510Q) and on PKR(wt) was 75 to 250% in each case. Besides, the AC50 on PKR(G332S) was over 40 µM; on PKR(R510Q), 1 to 40 µM; at PKR(wt), 0.1 to 1 µM. Also, the Emax at PKR(G332S) (setting [1]) was 75 to 250%; at PKR(R510Q) (setting [1]), 250 to 500%; at PKR(wt), 75 to 250%.

As for `COCCC(=O)N1CC2=C(C1)CN(S(=O)(=O)c1ccc3c(c1)N(C)CCO3)C2` [Example 53, 3-methoxy-1-(5-((4-methyl-3,4-dihydro-2H-benzo[b][1,4]oxazin-6-yl)sulfonyl)-3,4,5,6-tetrahydropyrrolo[3,4-c]pyrrol-2(1H)-yl)propan-1-one], the activation at 1.54 µM on PKR(G332S) (compound 1.54 μM), at PKR(R510Q) and at PKR(wt) was 75 to 250% each time. Moreover, the AC50 on PKR(G332S) is over 40 µM; on PKR(R510Q) it was 1 to 40 µM; at PKR(wt), 0.1 to 1 µM. Moreover, the Emax on PKR(G332S) (setting [1]), on PKR(R510Q) (setting [1]) and on PKR(wt) was 75 to 250% in each case.

`CC(C)(CO)C(=O)N1CC2=C(C1)CN(S(=O)(=O)c1ccc(OC(F)F)cc1)C2` [Example 7, 1-(5-((4-(difluoromethoxy)phenyl)sulfonyl)-3,4,5,6-tetrahydropyrrolo[3,4-c]pyrrol-2(1H)-yl)-3-hydroxy-2,2-dimethylpropan-1-one]: the half-maximal activity concentration (AC50) on PKR(G332S) is at most 0.1 µM. Moreover, the AC50 at PKR(R510Q) lay within 0.1 to 1 µM. Moreover, on PKR(wt), the activation at 1.54 µM lay in the range of 75 to 250%, the AC50 fell in the range of 0.1 to 1 µM and the Emax was in the range of 75 to 250%.
